Assay results taken from patent publication US12313632B2, “Tepoxalin targeting of ABCB1 overexpressing cancers” (THE BROAD INSTITUTE, INC., priority 2018, dated 2025).
Read-outs that look alike come from different tables or passages of the source. Values belong to the compound of their own block, whether it stands above or below them.

Key:
LS1034 cells [1] = assay: CellTiter-Glo cellular viability assay, killing of LS1034 cells; type: cell-based, human; conditions: for IC50: Homo sapiens, LS-1034
Procedure: (§1) Cell viability was assayed using a modified manufacturer's protocol for CellTiter-Glo® (Promega #G7573). Cells were seeded at a density of 2000 cells per well in a 96 well black, clear bottom plate (Corning #89091-012) in 100 uL total media per well. The following day different concentrations of compounds at various doses were printed in triplicate in a random well format using the Tecan D300e Digital Dispenser. After 120H, 60 μL of a 1:3 solution of CellTiterGlo reagent in 1×PBS (Corning #01018002) was added per well and allowed to incubate at RT for 10 mins. Luminescence was measured with an integration time of 0.1 s using Envision Microplates Reader (PERKIN ELMER #2105-0010). Biological replicates were averaged and normalized to vehicle control. Dose curves were generated using Graphpad Prism.

[2] = published pharmacokinetic studies; cited from earlier work
cyclooygenase = conditions: in vitro; cited from earlier work
LS1034 cells [3] = assay: Compound cell permeability assay (LC-MS); conditions: 3 hour incubation, 20 μM, with or without ABCB1 knockout or elacridar
Procedure: (§2) Compound was incubated in naïve cell media (no cell control, or NCC) or in the presence of cells at 1 million cells/mL. The incubation was carried out in a 37° C. with 5% CO2 cell incubator with gentle plate shaking for 3 hours. Following the incubation, the NCC samples were placed on the bench until final analysis. Cell samples were centrifuged at 500×g for 5 minutes. The supernatant was removed, and the cells were washed twice with cold PBS. Cells were again centrifuged at 500×g for 5 minutes, the supernatant was removed/discarded, and cells were resuspended in 130 pL water (Honeywell, catalog #33015-1L). The entire volume was then transferred into a Covaris microTUBE plate (Covaris, catalog #220078) and sonicated on a Covaris LE220 focused-ultrasonicator. Samples were transferred to a 96wp and centrifuged at 3000×g for 15 min at 20° C. The supernatant was transferred to a new 96wp. For both the NCC and cell samples, 5 pL was transferred to a 96wp. To each sample was added 45 pL cell media, 50 pL water, and 50 pL acetonitrile containing internal standard. […]
(§3) Samples were analyzed on a UPLC-MS/MS system consisting of a Waters Acquity I-Class FTN and AB Sciex 4500 Triple Quad mass spectrometer with compounds being detected by positive mode MRM detection. […] Sample concentrations were determined using a standard curve and dilution quality control samples prepared in a surrogate matrix. […]

MDR1 [4] = target: T1, MDR1 (Homo sapiens, UniProt P08183); assay: P-Glycoprotein transporter cell based antagonism assay (calcein AM assay); conditions: read-out: IC50 in calcein AM assay; relies upon cell-permeability of compounds
[5] = test system: barcode-tagged neoplastic cell line populations sorted by ABCB1 expression; assay: PRISM multiplexed cellular viability screen, cell killing plotted against ABCB1 expression; conditions: for Phenocopy of tepoxalin activity in PRISM: tested at the same dose
Procedure: PRISM cell line barcoding, pooling, and screening was performed as previously described with several improvements to the original method (5). First, the lentiviral vector was modified to encode the unique barcode identifier at the end of the puromycin resistance gene. This enables barcodes to be detected using a variant of the mRNA capture and Luminex detection method developed for the L1000 gene expression assay (6). Second, a set of ten inert barcodes were spiked-in to each well of each plate after cell lysis to control for variation in PCR amplification as detailed below.
Cell viability was calculated as the ratio of nMFI to the median of the nMFI from the DMSO-treated negative controls for each cell line on each plate. Batch effects produced from variable detection and assay conditions were then removed using ComBat (8). The final viability values were calculated as the median of the batch-corrected cell viabilities from biological replicates for each cell line, compound and dose.
Measures of dose response were obtained by fitting 3-parameter logistic curves to viability values for each compound and cell line using the R package ‘drc’. Following the practice of Smirnov and Safikhani (9), viability was truncated at 1.0 and fit as a function of drug concentration according to:
High-throughput “next gen” sequencing performed upon arrayed cell populations allowed for well-by-well tracking of cell viability over time, in the presence and absence of library compounds, via barcode enumeration and deconvolution of treated and control cell line populations. Using this approach, cell viability dose-response curves were generated for each compound of the drug repurposing library, across all targeted cell lines present in the barcode-tagged neoplastic cell line “PRISM” populations.
By sorting the “PRISM” population cell lines by their respective relative levels of ABCB1 expression (as assessed by RNAseq), the cell killing profile of each drug repurposing library compound tested could be plotted against relative levels of ABCB1 expression, thereby obtaining a cell killing profile that served as a proxy for dose-response of the library compound across progressively increasing levels of ABCB1 expression.

Kuramochi-ABCB1 cells = assay: Killing of native Kuramochi cells versus Kuramochi cells overexpressing ABCB1 (Kuramochi-ABCB1); type: cell-based, human; conditions: for Change of compound-mediated killing with overexpressed ABCB1: Kuramochi-ABCB1 versus native Kuramochi cells
Procedure: Cell viability was assayed using a modified manufacturer's protocol for CellTiter-Glo® (Promega #G7573). […] The following day different concentrations of compounds at various doses were printed in triplicate in a random well format using the Tecan D300e Digital Dispenser. […] Biological replicates were averaged and normalized to vehicle control. Dose curves were generated using Graphpad Prism.
Next, the consequence of ectopic ABCB1 overexpression in cells resistant to tepoxalin was evaluated.

REC1 cells = assay: Expanded cell line viability comparison, killing of REC1 cells; type: cell-based, human; conditions: REC1 versus LS1034
Procedure: as §1

[6] = test system: LS1034 cells administered sg ABCB1-2; assay: Viability of LS1034 cells given control sgRNA (sg GFP) or ABCB1 knockdown sgRNA (sg ABCB1-2); type: cell-based, human; conditions: sg ABCB1-2 compared to control sgRNA sg GFP
Procedure: A mixture of 3E6 cells, virus, and media with 4 μg/mL polybrene (Millipore) at a total volume of 2 mL was plated per well of a 12 well plate. Cells were centrifuged at 2000 RPM for 2 hours at 30° C. After removal from incubator, 2 mL of fresh media was added to each well and cells were allowed to incubate at 37° C. overnight. The following day cells were selected for with puromycin for 3-10 days, or until the non-infected control cell were completely non-viable.
as §1, with “Prism. […]” for “Prism.”

LS1034 cells [7] = test system: LS1034 cells
Procedure: as §2, §3

[8] = rat model, compared with naproxen; cited from earlier work
MDR1 [9] = target: T1, MDR1; assay: cell-based
MDR1 [10] = target: T1, MDR1; assay: cell-based; remark: listed apart in the source
[11] = PRISM population, ABCB1 expression by RNAseq
[12] = read-out: IC50 value (absolute) in killing LS1034 cells

T1 sequence (P08183 whole entry): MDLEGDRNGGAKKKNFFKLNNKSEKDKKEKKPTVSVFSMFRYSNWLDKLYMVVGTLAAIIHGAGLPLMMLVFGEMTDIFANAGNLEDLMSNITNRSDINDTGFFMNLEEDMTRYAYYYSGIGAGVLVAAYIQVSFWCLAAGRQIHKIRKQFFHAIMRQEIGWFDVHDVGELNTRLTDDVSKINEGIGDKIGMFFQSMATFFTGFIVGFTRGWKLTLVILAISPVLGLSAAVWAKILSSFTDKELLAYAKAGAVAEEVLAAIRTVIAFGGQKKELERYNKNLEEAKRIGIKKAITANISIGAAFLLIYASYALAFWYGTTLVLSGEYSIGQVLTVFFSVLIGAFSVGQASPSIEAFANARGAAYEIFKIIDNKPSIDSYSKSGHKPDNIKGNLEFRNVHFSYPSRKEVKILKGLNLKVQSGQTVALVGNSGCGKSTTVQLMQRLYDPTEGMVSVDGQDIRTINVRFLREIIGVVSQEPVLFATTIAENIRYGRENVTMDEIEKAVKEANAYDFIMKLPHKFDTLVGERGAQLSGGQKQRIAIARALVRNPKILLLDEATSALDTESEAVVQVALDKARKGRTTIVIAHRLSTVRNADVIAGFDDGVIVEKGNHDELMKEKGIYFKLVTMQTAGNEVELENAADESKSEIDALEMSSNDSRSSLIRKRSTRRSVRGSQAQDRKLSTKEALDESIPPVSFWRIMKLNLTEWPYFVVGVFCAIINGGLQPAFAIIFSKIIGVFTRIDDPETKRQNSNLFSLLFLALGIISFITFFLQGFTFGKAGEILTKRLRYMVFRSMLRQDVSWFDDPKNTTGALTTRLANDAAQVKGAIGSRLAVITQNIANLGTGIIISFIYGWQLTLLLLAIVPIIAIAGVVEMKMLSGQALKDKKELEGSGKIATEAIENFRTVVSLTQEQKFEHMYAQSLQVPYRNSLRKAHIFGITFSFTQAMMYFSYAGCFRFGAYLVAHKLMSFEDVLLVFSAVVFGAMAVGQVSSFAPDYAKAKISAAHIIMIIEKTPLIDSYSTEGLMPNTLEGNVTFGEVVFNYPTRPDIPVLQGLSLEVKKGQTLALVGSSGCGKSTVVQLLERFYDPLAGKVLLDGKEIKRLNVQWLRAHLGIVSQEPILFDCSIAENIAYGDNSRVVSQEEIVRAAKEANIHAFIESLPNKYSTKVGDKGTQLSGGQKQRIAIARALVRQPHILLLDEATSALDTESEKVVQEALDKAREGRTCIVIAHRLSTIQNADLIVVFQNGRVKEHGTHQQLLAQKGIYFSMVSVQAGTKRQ

Cell permeability (LS1034 cells [3]): cell impermeability
IC50 (MDR1 [4]): > 100 µM
Compound: COc1ccc(-n2nc(CCC(=O)O)cc2-c2ccc(Cl)cc2)cc1 [RWJ20142]
Viability of treated LS1034 cells (LS1034 cells [1]; LS1034 cells): no decrease in viability
Maximal plasma concentration relative to parent compound [2]: higher maximal plasma concentration than the parent compound
Activity against cyclooxygenase (cyclooygenase): active

Compound: CC(C)C[C@H](NC(=O)[C@H](CCc1ccccc1)NC(=O)CN1CCOCC1)C(=O)N[C@@H](Cc1ccccc1)C(=O)N[C@@H](CC(C)C)C(=O)[C@@]1(C)CO1 [carfilzomib, Carfilzomib]
Cell killing profile against relative levels of ABCB1 expression [5, 11]: robust killing of cells that expressed low levels of ABCB1

Compound: COc1cccc2c1C(=O)c1c(O)c3c(c(O)c1C2=O)C[C@@](O)(C(C)=O)C[C@@H]3O[C@H]1C[C@H](N)[C@H](O)[C@H](C)O1 [daunorubicin, Daunorubicin]
Cell killing profile against relative levels of ABCB1 expression [5]: robust killing of cells that expressed low levels of ABCB1

Compound: CC(=O)O[C@@]12CO[C@@H]1C[C@H](O)[C@@]1(C)C(=O)[C@H](O)C3=C(C)[C@@H](OC(=O)[C@H](O)[C@@H](NC(=O)OC(C)(C)C)c4ccccc4)C[C@@](O)([C@@H](OC(=O)c4ccccc4)[C@H]21)C3(C)C [docetaxel, Docetaxel]
Cell killing profile against relative levels of ABCB1 expression [5, 11]: robust killing of cells that expressed low levels of ABCB1

Compound: O=C(C(c1ccccc1)c1ccccc1)N1CCN(CC(O)COc2cccc3ncccc23)CC1 (stereo not drawn) [dofequidar]
IC50 (LS1034 cells [1]; [12]): > 10 µM

Compound: COc1cccc2c1C(=O)c1c(O)c3c(c(O)c1C2=O)C[C@@](O)(C(=O)CO)C[C@@H]3O[C@H]1C[C@H](N)[C@H](O)[C@H](C)O1 [doxorubicin, Doxorubicin]
Change of compound-mediated killing with overexpressed ABCB1 (Kuramochi-ABCB1 cells; 144 hours): dampened
Cell killing profile against relative levels of ABCB1 expression [5, 11]: robust killing of cells that expressed low levels of ABCB1

Compound: COc1cc2c(cc1OC)CN(CCc1ccc(NC(=O)c3cccc4c(=O)c5cccc(OC)c5[nH]c34)cc1)CC2 [elacridar]
IC50 (LS1034 cells [1]; [12]): 1.9 µM
Killing of REC1 cells compared with LS1034 cells (IC50 comparison) (REC1 cells): comparable IC50 values for REC1 killing and LS1034 killing
Cell killing by the compound alone in native and ABCB1-overexpressing Kuramochi cells (Kuramochi-ABCB1 cells; 144 hours): only modest cell killing
Phenocopy of tepoxalin activity in PRISM [5]: did not phenocopy tepoxalin

Compound: COc1cccc2c1C(=O)c1c(O)c3c(c(O)c1C2=O)C[C@@](O)(C(=O)CO)C[C@@H]3O[C@H]1C[C@H](N)[C@@H](O)[C@H](C)O1 [epirubicin, Epirubicin]
Cell killing profile against relative levels of ABCB1 expression [5, 11]: robust killing of cells that expressed low levels of ABCB1

Compound: CC(=O)[C@]1(O)Cc2c(O)c3c(c(O)c2[C@@H](O[C@H]2C[C@H](N)[C@H](O)[C@H](C)O2)C1)C(=O)c1ccccc1C3=O [idarubicin, Idarubicin]
Cell killing profile against relative levels of ABCB1 expression [5, 11]: robust killing of cells that expressed low levels of ABCB1

Compound: C/C(=C\c1csc(C)n1)[C@@H]1C[C@@H]2O[C@]2(C)CCC[C@H](C)[C@H](O)[C@@H](C)C(=O)C(C)(C)[C@@H](O)CC(=O)N1 [ixabepilone, Ixabepilone]
Cell killing profile against relative levels of ABCB1 expression [5]: robust killing of cells that expressed low levels of ABCB1

Compound: CC(=O)O[C@H]1C(=O)[C@@]2(C)[C@H]([C@H](OC(=O)c3ccccc3)[C@]3(O)C[C@H](OC(=O)[C@H](O)[C@@H](NC(=O)c4ccccc4)c4ccccc4)C(C)=C1C3(C)C)[C@]1(OC(C)=O)CO[C@@H]1C[C@@H]2O [paclitaxel, Paclitaxel]
IC50 (LS1034 cells [1]; read-out: IC50 in killing LS1034 cells): 0.165 µM
Killing of REC1 cells compared with LS1034 cells (IC50 comparison) (REC1 cells): more robust killing of REC1 cells than LS1034 cells
Change of compound-mediated killing with overexpressed ABCB1 (Kuramochi-ABCB1 cells; 144 hours): dampened

Compound: COc1cc2c(cc1OC)CN(CCc1ccc(NC(=O)c3cc(OC)c(OC)cc3NC(=O)c3cnc4ccccc4c3)cc1)CC2 [tariquidar]
IC50 (LS1034 cells [1]; [12]): > 10 µM
Phenocopy of tepoxalin activity in PRISM [5]: did not phenocopy tepoxalin

Cell permeability (LS1034 cells [7]): readily cell permeable
IC50 (MDR1 [9]): 12 µM
IC50 (MDR1 [10]): 32 µM
Compound: COc1ccc(-n2nc(CCC(=O)N(C)O)cc2-c2ccc(Cl)cc2)cc1 [tepoxalin]
IC50 (LS1034 cells [1]; [12]): 7.8 µM
Effect of elacridar co-treatment on killing of LS1034 cells (LS1034 cells [1]; LS1034, 120H, co-treatment with the MDR1 inhibitor elacridar across dose ranges): rescued
Killing of REC1 cells compared with LS1034 cells (IC50 comparison) (REC1 cells): more robust killing of REC1 cells than LS1034 cells
Effect of sg ABCB1-2 on compound-mediated killing of LS1034 cells [6]: effectively blocked
Change of compound-mediated killing with overexpressed ABCB1 (Kuramochi-ABCB1 cells; 144 hours): enhanced
Dose-response cell killing curves in combination with 2 μM elacridar, across ABCB1 expression/overexpression (Kuramochi-ABCB1 cells; combination with 2 μM elacridar, Kuramochi versus Kuramochi-ABCB1, 144 hours): impervious (did not shift)
Gastric ulcers at an effective dose [8]: fewer gastric ulcers in a rat model than naproxen
Cell killing profile against relative levels of ABCB1 expression [5, 11]: progressively enhanced killing of cell lines in positive correlation with increasing levels of ABCB1

Compound: C/C=C/C[C@@H](C)C(=O)[C@H]1C(=O)N[C@@H](C(C)C)C(=O)N(C)CC(=O)N(C)[C@@H](CC(C)C)C(=O)N[C@@H](C(C)C)C(=O)N(C)[C@@H](CC(C)C)C(=O)N[C@@H](C)C(=O)N[C@H](C)C(=O)N(C)[C@@H](CC(C)C)C(=O)N(C)[C@@H](CC(C)C)C(=O)N(C)[C@@H](C(C)C)C(=O)N1C [valspodar]
IC50 (LS1034 cells [1]; [12]): > 10 µM

Compound: CC[C@]1(O)C[C@@H]2C[N@@](CCc3c([nH]c4ccccc34)[C@@](C(=O)OC)(c3cc4c(cc3OC)N(C=O)[C@H]3[C@@](O)(C(=O)OC)[C@H](OC(C)=O)[C@]5(CC)C=CCN6CC[C@]43[C@@H]65)C2)C1 [vincristine, Vincristine]
Cell killing profile against relative levels of ABCB1 expression [5, 11]: robust killing of cells that expressed low levels of ABCB1

Compound: O[C@@H](COc1cccc2ncccc12)CN1CCN([C@@H]2c3ccccc3[C@@H]3[C@H](c4ccccc42)C3(F)F)CC1 [zosuquidar]
IC50 (LS1034 cells [1]; [12]): > 10 µM

Compound: Romidepsin
Cell killing profile against relative levels of ABCB1 expression [5]: robust killing of cells that expressed low levels of ABCB1

Compound: Vinorelbine
Cell killing profile against relative levels of ABCB1 expression [5, 11]: robust killing of cells that expressed low levels of ABCB1
